From ChEMBL document CHEMBL1130923, “Synthesis and biological activity of 2-methyl-20-epi analogues of 1 alpha,25-dihydroxyvitamin D3” (1998)

These molecules were tested on HL-60 (assay: Cell differentiation activity towards HL-60 cells was assessed in terms of NTB reactivity).
Assay type: functional, Homo sapiens

Question: Which Activity does the source give for `C=C1/C(=C\C=C2/CCC[C@]3(C)[C@@H]([C@H](C)CCCC(C)(C)O)CC[C@@H]23)C[C@H](O)[C@H](C)[C@H]1O` here?
Answer: 1

Question: How did the Activity turn out when `C=C1/C(=C\C=C2/CCC[C@]3(C)[C@@H]([C@H](C)CCCC(C)(C)O)CC[C@@H]23)C[C@@H](O)[C@H](C)[C@H]1O` was run?
Answer: 3

Question: `C=C1/C(=C\C=C2/CCC[C@]3(C)[C@@H]([C@H](C)CCCC(C)(C)O)CC[C@@H]23)C[C@H](O)[C@@H](C)[C@@H]1O` was tested. Which Activity did it give?
Answer: 6

Question: With `C=C1/C(=C\C=C2/CCC[C@]3(C)[C@@H]([C@H](C)CCCC(C)(C)O)CC[C@@H]23)C[C@@H](O)[C@@H](C)[C@@H]1O` as the molecule, how does the Activity read?
Answer: 2600

Question: For `C=C1/C(=C\C=C2/CCC[C@]3(C)[C@@H]([C@H](C)CCCC(C)(C)O)CC[C@@H]23)C[C@@H](O)[C@H](C)[C@@H]1O`, which Activity is on record?
Answer: 59000

Question: For `C=C1/C(=C\C=C2/CCC[C@]3(C)[C@@H]([C@H](C)CCCC(C)(C)O)CC[C@@H]23)C[C@H](O)[C@@H](C)[C@H]1O`, which Activity is on record?
Answer: 190

Question: For `C=C1/C(=C\C=C2/CCC[C@]3(C)[C@@H]([C@H](C)CCCC(C)(C)O)CC[C@@H]23)C[C@@H](O)[C@@H](C)[C@H]1O`, which Activity is on record?
Answer: 1

Question: For `C=C1/C(=C\C=C2/CCC[C@]3(C)[C@@H]([C@H](C)CCCC(C)(C)O)CC[C@@H]23)C[C@@H](O)C[C@@H]1O` [CALCITRIOL], which Activity is on record?
Answer: 100

Question: With `C=C1/C(=C\C=C2/CCC[C@]3(C)[C@@H]([C@H](C)CCCC(C)(C)O)CC[C@@H]23)C[C@H](O)[C@H](C)[C@@H]1O` as the molecule, how does the Activity read?
Answer: 730

Species: Rattus norvegicus
Assay: Bone calcium mobilization was tested on normal SD male rats and serum calcium level was reported
Assay type: functional
Set-up: unit not given beside the values

Question: For `C=C1/C(=C\C=C2/CCC[C@]3(C)[C@@H]([C@H](C)CCCC(C)(C)O)CC[C@@H]23)C[C@@H](O)[C@@H](C)[C@@H]1O`, which Activity is on record?
Answer: 115

Question: `C=C1/C(=C\C=C2/CCC[C@]3(C)[C@@H]([C@H](C)CCCC(C)(C)O)CC[C@@H]23)C[C@@H](O)[C@H](C)[C@@H]1O` was tested. Which Activity did it give?
Answer: 655

Question: With `C=C1/C(=C\C=C2/CCC[C@]3(C)[C@@H]([C@H](C)CCCC(C)(C)O)CC[C@@H]23)C[C@H](O)[C@@H](C)[C@H]1O` as the molecule, how does the Activity read?
Answer: 19

Question: `C=C1/C(=C\C=C2/CCC[C@]3(C)[C@@H]([C@H](C)CCCC(C)(C)O)CC[C@@H]23)C[C@@H](O)C[C@@H]1O` [CALCITRIOL] was tested. Which Activity did it give?
Answer: 100

Question: Which Activity does the source give for `C=C1/C(=C\C=C2/CCC[C@]3(C)[C@@H]([C@H](C)CCCC(C)(C)O)CC[C@@H]23)C[C@H](O)[C@H](C)[C@@H]1O` here?
Answer: 144

The molecules below were run against T1, Vitamin D3 receptor (Bos taurus) (UniProt Q28037) (assay: Affinity for bovine thymus VDR vitamin D receptor).
T1 sequence (whole entry): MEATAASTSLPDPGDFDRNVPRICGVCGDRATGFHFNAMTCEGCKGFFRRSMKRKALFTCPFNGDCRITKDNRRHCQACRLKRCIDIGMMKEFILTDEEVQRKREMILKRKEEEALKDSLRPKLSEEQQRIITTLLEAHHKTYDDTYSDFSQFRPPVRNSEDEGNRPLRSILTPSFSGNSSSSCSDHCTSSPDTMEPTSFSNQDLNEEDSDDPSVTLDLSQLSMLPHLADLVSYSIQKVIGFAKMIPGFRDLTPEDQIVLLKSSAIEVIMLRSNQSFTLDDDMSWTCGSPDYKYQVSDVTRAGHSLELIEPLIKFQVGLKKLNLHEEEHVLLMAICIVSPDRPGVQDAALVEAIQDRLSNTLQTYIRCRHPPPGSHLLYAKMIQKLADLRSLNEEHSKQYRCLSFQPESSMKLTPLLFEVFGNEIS

Question: How did the Activity turn out when `C=C1/C(=C\C=C2/CCC[C@]3(C)[C@@H]([C@H](C)CCCC(C)(C)O)CC[C@@H]23)C[C@H](O)[C@H](C)[C@H]1O` was run?
Answer: < 0.1

Question: How did the Activity turn out when `C=C1/C(=C\C=C2/CCC[C@]3(C)[C@@H]([C@H](C)CCCC(C)(C)O)CC[C@@H]23)C[C@@H](O)[C@H](C)[C@H]1O` was run?
Answer: < 0.1

Question: Which Activity does the source give for `C=C1/C(=C\C=C2/CCC[C@]3(C)[C@@H]([C@H](C)CCCC(C)(C)O)CC[C@@H]23)C[C@H](O)[C@@H](C)[C@@H]1O` here?
Answer: < 0.1

Question: `C=C1/C(=C\C=C2/CCC[C@]3(C)[C@@H]([C@H](C)CCCC(C)(C)O)CC[C@@H]23)C[C@@H](O)[C@@H](C)[C@@H]1O` was tested. Which Activity did it give?
Answer: 160

Question: Which Activity does the source give for `C=C1/C(=C\C=C2/CCC[C@]3(C)[C@@H]([C@H](C)CCCC(C)(C)O)CC[C@@H]23)C[C@@H](O)[C@H](C)[C@@H]1O` here?
Answer: 1200

Question: How did the Activity turn out when `C=C1/C(=C\C=C2/CCC[C@]3(C)[C@@H]([C@H](C)CCCC(C)(C)O)CC[C@@H]23)C[C@H](O)[C@@H](C)[C@H]1O` was run?
Answer: 7

Question: With `C=C1/C(=C\C=C2/CCC[C@]3(C)[C@@H]([C@H](C)CCCC(C)(C)O)CC[C@@H]23)C[C@@H](O)[C@@H](C)[C@H]1O` as the molecule, how does the Activity read?
Answer: < 0.1

Question: For `C=C1/C(=C\C=C2/CCC[C@]3(C)[C@@H]([C@H](C)CCCC(C)(C)O)CC[C@@H]23)C[C@@H](O)C[C@@H]1O` [CALCITRIOL], which Activity is on record?
Answer: 100

Question: How did the Activity turn out when `C=C1/C(=C\C=C2/CCC[C@]3(C)[C@@H]([C@H](C)CCCC(C)(C)O)CC[C@@H]23)C[C@H](O)[C@H](C)[C@@H]1O` was run?
Answer: 17
